{
  "source": "paper PMC11035696",
  "about": "“Prospective de novo drug design with deep interactome learning” (Nature Communications, 2024)",
  "key": {"[1]": {"target": "T1, human PPARγ (Homo sapiens, UniProt P37231)", "T1 construct": "expressed in transfected cells; host or cells: HEK293T", "T1 sequence (P37231 238-503 limits assumed)": "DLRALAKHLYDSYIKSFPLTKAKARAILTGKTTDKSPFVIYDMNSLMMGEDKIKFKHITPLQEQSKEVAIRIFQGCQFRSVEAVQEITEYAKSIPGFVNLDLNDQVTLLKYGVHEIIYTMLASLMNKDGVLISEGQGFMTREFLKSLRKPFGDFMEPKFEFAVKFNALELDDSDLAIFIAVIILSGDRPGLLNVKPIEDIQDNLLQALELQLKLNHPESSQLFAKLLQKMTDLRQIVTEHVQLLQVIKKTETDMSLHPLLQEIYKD", "assay": "Gal4-hybrid reporter gene assay, PPARγ activation", "assay_type": "cell-based", "details": "PPARγ, compounds 1 and 2, Table 4; read-out: pEC50 (converted)", "method": "(§1) Compounds 1–3 were characterized in a hybrid reporter gene assay for their agoniztic effect on human nuclear receptors PPARα/γ/δ, RXRα, FXRα, RARα in HEK293T cells. Compound 1 was tested in an isothermal titration calorimetry (ITC) assay to measure direct binding affinity to the ligand-binding domain of PPARγ. ADME properties were measured in standardized assays at Roche.\nPPAR activation was determined in uniform Gal4-hybrid reporter gene assays for the PPARα, PPARγ and PPARδ isoforms in HEK293T cells (German Collection of Microorganisms and Cell Culture GmbH, DSMZ) which were transiently transfected with pFR-Luc (Stratagene, La Jolla, CA, USA; reporter) and pRL-SV40 (Promega, Madison, WI, USA; internal control) and one pFA-CMV-hPPAR-LBD[97] clone, coding for the hinge region and ligand binding domain of the canonical isoform of human PPARα, PPARγ, PPARδ or respectively. Cells were cultured in Dulbecco’s modified Eagle’s medium (DMEM), high glucose supplemented with 10% fetal calf serum (FCS), sodium pyruvate (1 mM), penicillin (100 U ⋅ ml^-1), and streptomycin (100 μg ⋅ ml^-1) at 37 °C and 5% CO2 and seeded in 96-well plates (3 × 10^4 cells per well). After 24 h, medium was changed to Opti-MEM without supplements and cells were transiently transfected using Lipofectamine LTX reagent (Invitrogen) according to the manufacturer’s protocol. Five hours after transfection, cells were incubated with the test compounds in Opti-MEM supplemented with penicillin (100 U ⋅ ml^-1), streptomycin (100 μg ⋅ ml^-1) and 0.1% DMSO for 16 h before luciferase activity was measured using the Dual-Glo Luciferase Assay System (Promega) according to the manufacturer’s protocol on a Tecan Spark luminometer (Tecan Deutschland GmbH, Germany). Firefly luminescence was divided by Renilla luminescence and multiplied by 1000 resulting in relative light units (RLU) to normalize for transfection efficiency and cell growth. Fold activation was obtained by dividing the mean RLU of a test compound by the mean RLU of the untreated control. All samples were tested in at least three biologically independent experiments in duplicates. For dose-response curve fitting and calculation of EC50 values, the equation “[Agonist] versus response (variable slope—four parameters)” was used in GraphPad Prism (version 7.00, GraphPad Software, La Jolla, CA, USA) with fold activation data. The reference agonizts GW7647 (PPARα)[98],[99], pioglitazone (PPARγ)[100],[101] and L165,041 (PPARδ)[102],[103] were used to validate the assays and to monitor assay performance. Nuclear receptor selectivity profiling was performed with corresponding pFA-CMV-hNR-LBD clones and suitable reference agonizts on RARα (pFA-CMV-hRARα-LBD[104], 1 μM tretinoin), LXRα (pFA-CMV-hLXRα-LBD[104], 1 μM TO901317) and RXRα (pFA-CMV-h RXRα-LBD[105], 1 μM Bexarotene)."}, "[2]": {"target": "T2, human PPARδ (Homo sapiens, UniProt Q03181)", "T2 construct": "expressed in transfected cells; host or cells: HEK293T", "T2 sequence (Q03181 211-439 limits assumed)": "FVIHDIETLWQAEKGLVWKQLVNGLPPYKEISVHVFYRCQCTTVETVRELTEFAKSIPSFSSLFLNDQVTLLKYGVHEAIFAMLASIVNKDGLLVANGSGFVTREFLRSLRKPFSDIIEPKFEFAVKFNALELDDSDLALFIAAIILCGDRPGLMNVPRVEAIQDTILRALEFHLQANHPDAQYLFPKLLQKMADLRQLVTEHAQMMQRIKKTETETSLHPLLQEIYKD", "assay": "Gal4-hybrid reporter gene assay, PPARδ activation", "assay_type": "cell-based", "method": "as §1\nPPAR activation was determined in uniform Gal4-hybrid reporter gene assays for the PPARα, PPARγ and PPARδ isoforms in HEK293T cells (German Collection of Microorganisms and Cell Culture GmbH, DSMZ) which were transiently transfected with pFR-Luc (Stratagene, La Jolla, CA, USA; reporter) and pRL-SV40 (Promega, Madison, WI, USA; internal control) and one pFA-CMV-hPPAR-LBD[97] clone, coding for the hinge region and ligand binding domain of the canonical isoform of human PPARα, PPARγ, PPARδ or respectively. Cells were cultured in Dulbecco’s modified Eagle’s medium (DMEM), high glucose supplemented with 10% fetal calf serum (FCS), sodium pyruvate (1 mM), penicillin (100 U ⋅ ml^-1), and streptomycin (100 μg ⋅ ml^-1) at 37 °C and 5% CO2 and seeded in 96-well plates (3 × 10^4 cells per well). After 24 h, medium was changed to Opti-MEM without supplements and cells were transiently transfected using Lipofectamine LTX reagent (Invitrogen) according to the manufacturer’s protocol. Five hours after transfection, cells were incubated with the test compounds in Opti-MEM supplemented with penicillin (100 U ⋅ ml^-1), streptomycin (100 μg ⋅ ml^-1) and 0.1% DMSO for 16 h before luciferase activity was measured using the Dual-Glo Luciferase Assay System (Promega) according to the manufacturer’s protocol on a Tecan Spark luminometer (Tecan Deutschland GmbH, Germany). Firefly luminescence was divided by Renilla luminescence and multiplied by 1000 resulting in relative light units (RLU) to normalize for transfection efficiency and cell growth. Fold activation was obtained by dividing the mean RLU of a test compound by the mean RLU of the untreated control. […]"}, "[3]": {"target": "5HT1A (Homo sapiens, UniProt P08908)", "sequence (P08908 whole entry)": "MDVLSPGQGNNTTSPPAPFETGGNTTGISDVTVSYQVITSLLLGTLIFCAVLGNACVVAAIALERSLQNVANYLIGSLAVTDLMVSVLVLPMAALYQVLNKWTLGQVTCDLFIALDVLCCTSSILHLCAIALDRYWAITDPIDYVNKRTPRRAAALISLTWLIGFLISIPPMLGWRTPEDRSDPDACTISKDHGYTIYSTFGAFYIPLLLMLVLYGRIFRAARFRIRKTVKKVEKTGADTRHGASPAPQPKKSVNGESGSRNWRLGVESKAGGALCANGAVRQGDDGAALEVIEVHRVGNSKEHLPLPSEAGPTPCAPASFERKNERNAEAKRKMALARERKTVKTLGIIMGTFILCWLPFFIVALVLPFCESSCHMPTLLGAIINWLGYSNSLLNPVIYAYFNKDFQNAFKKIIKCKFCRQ", "assay": "Safety off-target panel, binding", "details": "single point", "description": "(§2) Table S9-S12 list all targets, their species, inhibition (%) and assay type for the experiments conducted in the\n(§3) off-targets. […] The numbers for mean\n(§4) inhibition (%) represent single point measurements.\n(§5) off-targets. […] The numbers for\n(§6) mean inhibition (%) represent single point measurements."}, "[4]": {"target": "5HT2A (Homo sapiens, UniProt P28223)", "sequence (P28223 whole entry)": "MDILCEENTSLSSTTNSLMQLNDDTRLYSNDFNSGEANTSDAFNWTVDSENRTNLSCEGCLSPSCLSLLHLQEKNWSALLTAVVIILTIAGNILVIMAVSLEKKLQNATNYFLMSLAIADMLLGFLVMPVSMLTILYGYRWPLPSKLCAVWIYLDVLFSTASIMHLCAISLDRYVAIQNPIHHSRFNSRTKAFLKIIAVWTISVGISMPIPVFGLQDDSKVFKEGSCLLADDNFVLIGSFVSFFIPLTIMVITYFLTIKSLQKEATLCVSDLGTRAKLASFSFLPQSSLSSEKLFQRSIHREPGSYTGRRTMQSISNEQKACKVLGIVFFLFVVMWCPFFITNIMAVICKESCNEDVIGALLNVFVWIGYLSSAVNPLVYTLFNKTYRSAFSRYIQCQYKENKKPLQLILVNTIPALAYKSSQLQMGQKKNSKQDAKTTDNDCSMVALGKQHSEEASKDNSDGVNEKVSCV", "assay": "Safety off-target panel, binding", "details": "single point", "description": "as §2, §3, §4, §5, §6"}, "[5]": {"target": "ADENOSINE A1 RECEPTOR (Homo sapiens, UniProt P30542)", "sequence (P30542 whole entry)": "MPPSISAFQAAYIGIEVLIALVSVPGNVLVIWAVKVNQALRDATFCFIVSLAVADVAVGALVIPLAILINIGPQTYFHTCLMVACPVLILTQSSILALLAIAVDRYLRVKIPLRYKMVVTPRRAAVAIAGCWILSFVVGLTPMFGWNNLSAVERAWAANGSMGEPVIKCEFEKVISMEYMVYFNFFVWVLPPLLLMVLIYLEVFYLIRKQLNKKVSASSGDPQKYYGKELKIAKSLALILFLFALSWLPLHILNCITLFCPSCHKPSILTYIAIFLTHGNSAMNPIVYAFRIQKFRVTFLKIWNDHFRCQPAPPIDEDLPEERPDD", "assay": "Safety off-target panel, binding", "details": "single point", "description": "as §2, §3, §4, §5, §6"}, "[6]": {"target": "ANGIOTENSIN II RECEPTOR 1 (Homo sapiens, UniProt P30556)", "sequence (P30556 whole entry)": "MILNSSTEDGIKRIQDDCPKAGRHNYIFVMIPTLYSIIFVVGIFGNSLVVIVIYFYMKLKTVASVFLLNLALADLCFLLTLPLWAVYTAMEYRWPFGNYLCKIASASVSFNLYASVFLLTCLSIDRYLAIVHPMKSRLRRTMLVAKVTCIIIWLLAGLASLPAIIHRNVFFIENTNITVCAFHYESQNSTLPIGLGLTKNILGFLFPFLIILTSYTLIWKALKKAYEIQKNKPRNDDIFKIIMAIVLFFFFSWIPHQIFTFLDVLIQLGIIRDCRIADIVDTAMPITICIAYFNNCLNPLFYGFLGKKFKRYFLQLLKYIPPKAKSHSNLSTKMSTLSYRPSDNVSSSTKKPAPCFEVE", "assay": "Safety off-target panel, binding", "details": "single point", "description": "as §2, §3, §4, §5, §6"}, "[7]": {"target": "DOPAMINE D1 RECEPTOR (Homo sapiens, UniProt P21728)", "sequence (P21728 whole entry)": "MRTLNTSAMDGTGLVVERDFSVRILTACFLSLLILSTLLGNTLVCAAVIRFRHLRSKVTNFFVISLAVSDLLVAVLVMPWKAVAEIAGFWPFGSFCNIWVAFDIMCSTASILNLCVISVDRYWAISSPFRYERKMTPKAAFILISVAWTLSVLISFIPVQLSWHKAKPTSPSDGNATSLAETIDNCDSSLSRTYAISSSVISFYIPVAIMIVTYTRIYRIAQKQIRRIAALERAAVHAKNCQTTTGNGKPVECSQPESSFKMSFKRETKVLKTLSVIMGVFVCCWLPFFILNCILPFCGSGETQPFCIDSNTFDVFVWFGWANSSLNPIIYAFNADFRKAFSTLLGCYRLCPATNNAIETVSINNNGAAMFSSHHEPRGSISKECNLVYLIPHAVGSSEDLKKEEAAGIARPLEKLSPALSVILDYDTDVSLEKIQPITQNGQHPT", "assay": "Safety off-target panel, binding", "details": "single point", "description": "as §2, §3, §4, §5, §6"}, "[8]": {"target": "ESTROGEN RECEPTOR α (Homo sapiens, UniProt P03372)", "sequence (P03372 whole entry)": "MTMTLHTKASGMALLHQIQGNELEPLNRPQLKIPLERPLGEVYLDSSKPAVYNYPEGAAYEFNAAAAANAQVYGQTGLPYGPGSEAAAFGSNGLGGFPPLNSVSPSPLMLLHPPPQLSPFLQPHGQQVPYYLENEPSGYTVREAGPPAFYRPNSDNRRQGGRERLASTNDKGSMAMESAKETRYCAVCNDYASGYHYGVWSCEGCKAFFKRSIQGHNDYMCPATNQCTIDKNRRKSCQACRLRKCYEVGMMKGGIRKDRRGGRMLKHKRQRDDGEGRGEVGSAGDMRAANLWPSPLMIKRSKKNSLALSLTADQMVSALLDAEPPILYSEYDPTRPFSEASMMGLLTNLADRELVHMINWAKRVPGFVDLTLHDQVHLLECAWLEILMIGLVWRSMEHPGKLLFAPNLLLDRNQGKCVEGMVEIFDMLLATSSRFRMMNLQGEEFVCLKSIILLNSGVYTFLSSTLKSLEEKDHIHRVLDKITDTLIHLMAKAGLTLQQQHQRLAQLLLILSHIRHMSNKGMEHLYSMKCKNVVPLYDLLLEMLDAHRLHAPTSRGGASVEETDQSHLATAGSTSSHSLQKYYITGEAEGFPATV", "assay": "Safety off-target panel, binding", "details": "single point", "description": "as §2, §3, §4, §5, §6"}, "[9]": {"target": "HISTAMINE H1 RECEPTOR (Homo sapiens, UniProt P35367)", "sequence (P35367 whole entry)": "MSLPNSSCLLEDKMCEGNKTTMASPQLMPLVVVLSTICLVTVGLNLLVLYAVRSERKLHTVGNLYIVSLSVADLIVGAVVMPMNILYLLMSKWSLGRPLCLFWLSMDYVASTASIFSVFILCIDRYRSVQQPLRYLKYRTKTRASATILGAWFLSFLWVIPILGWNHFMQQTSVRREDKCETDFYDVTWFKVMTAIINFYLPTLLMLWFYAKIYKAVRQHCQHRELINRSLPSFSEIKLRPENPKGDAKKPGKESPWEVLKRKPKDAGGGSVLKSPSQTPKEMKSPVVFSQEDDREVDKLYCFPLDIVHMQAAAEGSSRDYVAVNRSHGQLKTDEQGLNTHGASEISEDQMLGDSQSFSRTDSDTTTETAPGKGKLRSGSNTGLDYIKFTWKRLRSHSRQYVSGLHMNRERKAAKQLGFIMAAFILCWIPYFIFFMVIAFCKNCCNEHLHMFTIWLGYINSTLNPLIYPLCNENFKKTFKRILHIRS", "assay": "Safety off-target panel, binding", "details": "single point", "description": "as §2, §3, §4, §5, §6"}, "[10]": {"target": "α2A-ADRENOCEPTOR (Homo sapiens, UniProt P08913)", "sequence (P08913 whole entry)": "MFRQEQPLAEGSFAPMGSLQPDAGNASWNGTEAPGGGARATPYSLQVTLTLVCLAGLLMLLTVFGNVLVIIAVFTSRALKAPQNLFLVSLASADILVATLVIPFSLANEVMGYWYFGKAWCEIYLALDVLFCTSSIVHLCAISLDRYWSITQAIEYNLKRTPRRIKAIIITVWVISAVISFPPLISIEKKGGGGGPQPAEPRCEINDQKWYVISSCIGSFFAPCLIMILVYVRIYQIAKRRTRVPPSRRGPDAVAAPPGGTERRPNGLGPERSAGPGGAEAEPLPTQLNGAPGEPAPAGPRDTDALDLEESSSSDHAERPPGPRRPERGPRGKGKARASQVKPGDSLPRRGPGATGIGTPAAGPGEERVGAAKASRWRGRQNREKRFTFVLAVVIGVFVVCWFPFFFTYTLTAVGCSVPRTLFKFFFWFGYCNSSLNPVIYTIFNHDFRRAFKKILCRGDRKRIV", "assay": "Safety off-target panel, binding", "details": "single point", "description": "as §2, §3, §4, §5, §6"}, "[11]": {"target": "β2-ADRENOCEPTOR (Homo sapiens, UniProt P07550)", "sequence (P07550 whole entry)": "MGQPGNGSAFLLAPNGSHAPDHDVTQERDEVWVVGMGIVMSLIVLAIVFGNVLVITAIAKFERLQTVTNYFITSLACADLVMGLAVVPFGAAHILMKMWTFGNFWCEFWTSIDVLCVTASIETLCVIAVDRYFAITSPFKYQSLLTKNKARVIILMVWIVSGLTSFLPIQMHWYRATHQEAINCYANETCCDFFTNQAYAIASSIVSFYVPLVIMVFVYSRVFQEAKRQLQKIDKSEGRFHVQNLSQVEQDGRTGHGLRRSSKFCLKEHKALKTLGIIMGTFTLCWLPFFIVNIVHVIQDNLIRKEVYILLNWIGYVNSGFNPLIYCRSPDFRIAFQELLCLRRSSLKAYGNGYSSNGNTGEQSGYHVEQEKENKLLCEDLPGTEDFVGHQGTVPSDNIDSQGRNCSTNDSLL", "assay": "Safety off-target panel, binding", "details": "single point", "description": "as §2, §3, §4, §5, §6"}},
  "data": [
    {"smiles": "COc1ccc(Oc2ccc3ncn(CCOc4ccc(CCC(=O)O)cc4)c3c2)cc1", "note": "[Compound 2]", "values": [
      {"measurement": "EC50", "setting": "[1]", "result": 2.29, "unit": "µM"},
      {"measurement": "activity on PPARδ", "setting": "[2]; result in words", "result": "no discernible impact"},
      {"measurement": "inhibition at 10 µM", "setting": "[3]", "result": 22.7, "unit": "%"},
      {"measurement": "inhibition at 10 µM", "setting": "[4]", "result": -8.8, "unit": "%"},
      {"measurement": "inhibition at 10 µM", "setting": "[5]", "result": -3.6, "unit": "%"},
      {"measurement": "inhibition at 10 µM", "setting": "[6]", "result": -6.2, "unit": "%"},
      {"measurement": "inhibition at 10 µM", "setting": "[7]", "result": -5.7, "unit": "%"},
      {"measurement": "inhibition at 10 µM", "setting": "[8]", "result": -1.8, "unit": "%"},
      {"measurement": "inhibition at 10 µM", "setting": "[9]", "result": -6.7, "unit": "%"},
      {"measurement": "inhibition at 10 µM", "setting": "[10]", "result": 4.9, "unit": "%"},
      {"measurement": "inhibition at 10 µM", "setting": "[11]", "result": 7, "unit": "%"}
    ]},
    {"smiles": "Cc1nnc(-c2ccc(OCCCOc3ccc(CCC(=O)O)c(F)c3)c(F)c2)s1", "note": "[Compound 1]", "values": [
      {"measurement": "EC50", "setting": "[1]", "result": 1.48, "unit": "µM"},
      {"measurement": "EC50", "setting": "[2]; HEK293T cells", "result": "0.24 ± 0.05", "unit": "µM"},
      {"measurement": "inhibition at 10 µM", "setting": "[3]", "result": -20.6, "unit": "%"},
      {"measurement": "inhibition at 10 µM", "setting": "[4]", "result": -3.3, "unit": "%"},
      {"measurement": "inhibition at 10 µM", "setting": "[5]", "result": 9.4, "unit": "%"},
      {"measurement": "inhibition at 10 µM", "setting": "[6]", "result": -7.5, "unit": "%"},
      {"measurement": "inhibition at 10 µM", "setting": "[7]", "result": -3.3, "unit": "%"},
      {"measurement": "inhibition at 10 µM", "setting": "[8]", "result": 13.6, "unit": "%"},
      {"measurement": "inhibition at 10 µM", "setting": "[9]", "result": -7, "unit": "%"},
      {"measurement": "inhibition at 10 µM", "setting": "[10]", "result": -3.2, "unit": "%"},
      {"measurement": "inhibition at 10 µM", "setting": "[11]", "result": 4, "unit": "%"}
    ]}
  ]
}
